Assay results from patent publication US20160030499A1, “Adaptogenic Compositions And Method For Production Thereof” (Rubikon Ltd., priority 2014, published 2016).

Assay: Storage stability of quantitated schisandrin (HPLC)
Type: physicochemical
Source text: A high performance liquid chromatography (HPLC) method was developed to quantitate the schisandrin compound contained in the Schisandra chinensis extract. Schisandrin (≧98%) obtained from Sigma-Aldrich was used as a control. The content of the schisandrin compound in the Schisandra chinensis seed oil extracts ranged from about 4.2 to 4.9% depending on the extraction for example, prior to standardization.
A High-performance liquid chromatography method has been developed to quantify the schisandrin in the extract:
Chromatographic Conditions: • Column: Agilent Zorbax Eclipse XDB-C 18, 150 mm length and 4.6 mm internal diameter filled with octadecylsilyl silica gel, 5 micron particle size; • Flow rate: 1 ml/min; • Detection at wavelength: 250 nm; • Volume of injection sample: 10 μl; • Column temperature: 25° C.

## COc1cc2c(c(OC)c1OC)-c1c(cc(OC)c(OC)c1OC)C[C@](C)(O)[C@@H](C)C2 [schisandrin compound, schisandrin]
12 months, 30 degrees Celsius and 65% relative humidity
  Storage stability of quantitated amount of schisandrin: stable and unchanged
24 months, 25 degrees Celsius and 60% relative humidity
  Storage stability of quantitated amount of schisandrin: stable and unchanged
Conditions not stated
  Storage stability in other studies using the formulation tested in Example 1: stable for at least or about one year
Six months, 40 degrees Celsius and 75% relative humidity
  Storage stability of quantitated amount of schisandrin: stable and unchanged
